A word on the IC50: it is the concentration at which inhibition is half-maximal. As a reminder, the Ki is a dissociation constant, usually derived from enzyme kinetics or from competition with a known ligand.

For eleven compounds, IC50, Ki and EC90 results are on record in US20070191363A1, “Heteroalkyl-substituted biphenyl-4-carboxylic acid arylamide analogues” (Neurogen Corporation, priority 2004, published 2007).

For the first experiment, the target named is T1, human capsaicin receptor (Homo sapiens, UniProt Q8NER1).
T1 construct: expressed in transfected cells
T1 sequence (Q8NER1 whole entry): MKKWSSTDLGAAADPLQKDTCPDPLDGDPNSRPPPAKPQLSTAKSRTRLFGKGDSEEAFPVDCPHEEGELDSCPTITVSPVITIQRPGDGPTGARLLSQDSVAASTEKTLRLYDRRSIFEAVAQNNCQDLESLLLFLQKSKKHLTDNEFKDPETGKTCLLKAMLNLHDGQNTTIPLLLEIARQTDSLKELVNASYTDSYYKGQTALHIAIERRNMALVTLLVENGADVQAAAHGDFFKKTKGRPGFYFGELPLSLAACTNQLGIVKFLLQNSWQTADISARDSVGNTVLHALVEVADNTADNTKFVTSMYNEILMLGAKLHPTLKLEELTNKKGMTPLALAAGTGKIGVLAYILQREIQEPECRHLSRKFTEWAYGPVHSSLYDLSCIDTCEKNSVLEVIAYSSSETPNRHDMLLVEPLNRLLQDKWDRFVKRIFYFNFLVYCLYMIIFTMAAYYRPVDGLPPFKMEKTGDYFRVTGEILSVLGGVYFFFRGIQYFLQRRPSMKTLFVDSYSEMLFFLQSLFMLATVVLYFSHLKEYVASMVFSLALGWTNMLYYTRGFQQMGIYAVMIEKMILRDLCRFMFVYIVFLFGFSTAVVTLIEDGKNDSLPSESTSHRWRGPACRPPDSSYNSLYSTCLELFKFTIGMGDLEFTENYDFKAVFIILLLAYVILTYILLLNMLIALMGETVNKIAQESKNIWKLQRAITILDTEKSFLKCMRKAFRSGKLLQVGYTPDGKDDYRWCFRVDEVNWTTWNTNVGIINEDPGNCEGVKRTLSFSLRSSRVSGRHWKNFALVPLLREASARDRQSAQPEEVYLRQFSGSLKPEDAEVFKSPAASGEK
As to the kind of experiment: Calcium mobilization assay, determination of antagonist activity. Type of experiment: cell-based. Particulars: 50% decrease in the fluorescence response of cells exposed to capsaicin; cells expressing human capsaicin receptor. On the procedure: A cDNA encoding full length human capsaicin receptor (SEQ ID NO:1, 2 or 3 of U.S. Pat. No. 6,482,611) is subcloned in the plasmid pBK-CMV (Stratagene, La Jolla, Calif.) for recombinant expression in mammalian cells.
Human embryonic kidney (HEK293) cells are transfected with the pBK-CMV expression construct encoding the full length human capsaicin receptor using standard methods. The transfected cells are selected for two weeks in media containing G418 (400 μg/ml) to obtain a pool of stably transfected cells. Independent clones are isolated from this pool by limiting dilution to obtain clonal stable cell lines for use in subsequent experiments.
This Example illustrates a representative calcium mobilization assay for use in monitoring the response of cells expressing capsaicin receptor to capsaicin and other vanilloid ligands of the capsaicin receptor, as well as for evaluating test compounds for agonist and antagonist activity.
(§1) Cells transfected with expression plasmids (as described in Example 3) and thereby expressing human capsaicin receptor are seeded and grown to 70-90% confluency in FALCON black-walled, clear-bottomed 96-well plates (#3904, BECTON-DICKINSON, Franklin Lakes, N.J.). The culture medium is emptied from the 96 well plates and FLUO-3 AM calcium sensitive dye (Molecular Probes, Eugene, Oreg.) is added to each well (dye solution: 1 mg FLUO-3 AM, 440 μL DMSO and 440 μl 20% pluronic acid in DMSO, diluted 1:250 in Krebs-Ringer HEPES (KRH) buffer (25 mM HEPES, 5 mM KCl, 0.96 mM NaH2PO4, 1 mM MgSO4, 2 mM CaCl2, 5 mM glucose, 1 mM probenecid, pH 7.4), 50 μl diluted solution per well). Plates are covered with aluminum foil and incubated at 37° C. for 1-2 hours in an environment containing 5% CO2. After the incubation, the dye is emptied from the plates, and the cells are washed once with KRH buffer, and resuspended in KRH buffer.
To measure the ability of a test compound to agonize or antagonize a calcium mobilization response in cells expressing capsaicin receptors to capsaicin or other vanilloid agonist, the EC50 of the agonist capsaicin is first determined. An additional 20 μl of KRH buffer and 1 μl DMSO is added to each well of cells, prepared as described above. 100 μl capsaicin in KRH buffer is automatically transferred by the FLIPR instrument to each well. Capsaicin-induced calcium mobilization is monitored using either FLUOROSKAN ASCENT (Labsystems; Franklin, Mass.) or FLIPR (fluorometric imaging plate reader system; Molecular Devices, Sunnyvale, Calif.) instruments. Data obtained between 30 and 60 seconds after agonist application are used to generate an 8-point concentration response curve, with final capsaicin concentrations of 1 nM to 3 μM. […] software (Synergy Software, Reading, Pa.) is used to fit the data to the equation: y=a*(1/(1+(b/x)c)) to determine the 50% excitatory concentration (EC50) for the response. In this equation, y is the maximum fluorescence signal, x is the concentration of the agonist or antagonist (in this case, capsaicin), a is the Emax, b corresponds to the EC50 value and c is the Hill coefficient. Determination of Agonist Activity
Test compounds are dissolved in DMSO, diluted in 20 μl KRH buffer so that the final concentration of test compounds in the assay well is between 1 μM and 5 μM, and added to cells prepared as described above. The 96 well plates containing prepared cells and test compounds are incubated in the dark, at room temperature for 0.5 to 6 hours. It is important that the incubation not continue beyond 6 hours. Just prior to determining the fluorescence response, 100 μl capsaicin in KRH buffer at twice the EC50 concentration determined as described above is automatically added by the FLIPR instrument to each well of the 96 well plate for a final sample volume of 200 μl and a final capsaicin concentration equal to the EC50. The final concentration of test compounds in the assay wells is between 1 μM and 5 μM.
A general note: Calcium flux is commonly read through the fluorescence of an indicator in the cells.
In the case of `CC(C)(C)c1ccc(NC(=O)c2ccc(-c3ncccc3C(F)(F)F)cc2)cc1OCCO` [Compound 1, N-[4-tert-Butyl-3-(2-hydroxy-ethoxy)-phenyl]-4-(3-trifluoromethyl-pyridin-2-yl)-benzamide], the IC50 was not above 1 µM.
Regarding `CC(C)(C)c1ccc(NC(=O)c2ccc(-c3ncccc3C(F)(F)F)cc2)cc1OCCN1CCOCC1` [Compound 2, N-[4-tert-Butyl-3-(2-morpholin-4-yl-ethoxy)-phenyl]-4-(3-trifluoromethyl-pyridin-2-yl)-benzamide], the IC50 is not above 1 µM.
As to `C[C@@H]1CN(CCOc2cc(NC(=O)c3ccc(-c4ncccc4C(F)(F)F)cc3)ccc2C(C)(C)C)C[C@H](C)O1` [Compound 3, N-{4-tert-Butyl-3-[2-(2,6-dimethyl-morpholin-4-yl)-ethoxy]-phenyl}-4-(3-trifluoromethyl-pyridin-2-yl)-benzamide (cis)], the IC50 was not above 1 µM.
With `CC(C)(C)c1ccc(NC(=O)c2ccc(-c3ncccc3C(F)(F)F)cc2)cc1OCCN1CCCCC1` [Compound 4, N-[4-tert-Butyl-3-(2-piperidin-1-yl-ethoxy)-phenyl]-4-(3-trifluoromethyl-pyridin-2-yl)-benzamide], the IC50 is not above 1 µM.
Turning to `COCCN(CCOC)CCOc1cc(NC(=O)c2ccc(-c3ncccc3C(F)(F)F)cc2)ccc1C(C)(C)C` [Compound 5, N-(3-{2-[Bis-(2-methoxy-ethyl)-amino]-ethoxy}-4-tert-butyl-phenyl)-4-(3-trifluoromethyl-pyridin-2-yl)-benzamide], the IC50 was not above 1 µM.
With `CC1(C)CCCN(CCOc2cc(NC(=O)c3ccc(-c4ncccc4C(F)(F)F)cc3)ccc2C(C)(C)C)C1` [Compound 6, N-{4-tert-Butyl-3-[2-(3,3-dimethyl-piperidin-1-yl)-ethoxy]-phenyl}-4-(3-trifluoromethyl-pyridin-2-yl)-benzamide], the concentration for half-maximal inhibition (IC50) was not above 1 µM.
In the case of `CC(C)(C)c1ccc(NC(=O)c2ccc(-c3ncccc3C(F)(F)F)cc2O)cc1OCCO` [Compound 7, N-[4-tert-Butyl-3-(2-hydroxy-ethoxy)-phenyl]-2-hydroxy-4-(3-trifluoromethyl-pyridin-2-yl)-benzamide], the IC50 is not above 1 µM.
Still for that read-out and setting: under `C[C@@H]1CN(CCOc2cc(NC(=O)c3ccc(-c4ncccc4C(F)(F)F)cc3O)ccc2C(C)(C)C)C[C@H](C)O1` [Compound 8, N-{4-tert-Butyl-3-[2-(2,6-dimethyl-morpholin-4-yl)-ethoxy]-phenyl}-2-hydroxy-4-(3-trifluoromethyl-pyridin-2-yl)-benzamide (cis)] stands not above 1 µM; under `CC(C)(C)c1ccc(NC(=O)c2ccc(-c3ncccc3C(F)(F)F)cc2O)cc1OCCN1CCCCC1` [Compound 9, N-[4-tert-Butyl-3-(2-piperidin-1-yl-ethoxy)-phenyl]-2-hydroxy-4-(3-trifluoromethyl-pyridin-2-yl)-benzamide], not above 1 µM.

The next experiment concerns the target VR.
Test: not given
Conditions: binds to VR with no more than moderate affinity; typical value; cited from earlier work.
For `Cl.Cl.Cl.Cl.Cl.Cl.N.N.N.N.N.N.N.N.N.N.N.N.N.N.[O-2].[O-2].[Ru+3].[Ru+3].[Ru+4]` [ruthenium red], the Ki was not below 140 µM.

The next experiment deals with T1, human capsaicin receptor. As to the kind of experiment: Calcium mobilization assay, capsaicin agonist response. Type of experiment: cell-based. Particulars: capsaicin positive control, calcium mobilization in cells expressing human capsaicin receptor; read-out: approximate EC90 concentration. On the procedure:
as §1, with “Plates are covered with aluminum foil and incubated at 37° C. for 1-2 hours in an environment containing 5% CO2. After the incubation, the dye is emptied from the plates, and the cells are washed once with KRH buffer, and resuspended in KRH buffer.” left out
To measure the ability of a test compound to agonize or antagonize a calcium mobilization response in cells expressing capsaicin receptors to capsaicin or other vanilloid agonist, the EC50 of the agonist capsaicin is first determined. […] Capsaicin-induced calcium mobilization is monitored using either FLUOROSKAN ASCENT (Labsystems; Franklin, Mass.) or FLIPR (fluorometric imaging plate reader system; Molecular Devices, Sunnyvale, Calif.) instruments. […] In this equation, y is the maximum fluorescence signal, x is the concentration of the agonist or antagonist (in this case, capsaicin), a is the Emax, b corresponds to the EC50 value and c is the Hill coefficient. […]
Consider `COc1cc(CNC(=O)CCCC/C=C/C(C)C)ccc1O` [capsaicin], for which the EC90 was approximately 0.1 µM.
